Earlier results, collected in patent US10821087B2, “Stabilized injectable emulsion of Propofol and Ketamine” (NEON LABORATORIES LIMITED, priority 2015, dated 2020).

Test system: Propofol induced pain
Details: 100 μg/kg Ketamine administered just before Propofol

CNC1(c2ccccc2Cl)CCCCC1=O (centres unmarked) [Ketamine]
adverse hemodynamic effects: without significant adverse hemodynamic effects
incidence and intensity of Propofol induced pain: reduce the incidence and intensity of Propofol induced pain
